According to patent US7223759B2, “Antibacterial 3,5-diaminopiperidine-substituted aromatic and heteroaromatic compounds” (Anadys Pharmaceuticals, Inc., priority 2003, dated 2007):
Where two headings read alike, the source gives them in different places.

Test system: Escherichia coli (ATCC25922) or Staphylococcus aureus (ATCC25923)
Experiment: Antibacterial MIC, microdilution method in Mueller-Hinton medium
Assay type: cell-based
Conditions: for MIC: Escherichia coli, 18 h, read-out: Potency (MIC)
Procedure: The antibacterial activity of the Formula I compounds was evaluated against standard bacterial strains by determining the minimal inhibitory concentration (MIC) to block growth. Each drug was assayed by the microdilution method in Mueller-Hinton medium, as recommended by the National Committee for Clinical Laboratory Standards. Approved Standard M7-A5: Methods for Dilution Antimicrobial Susceptibility Tests for Bacteria That Grow Aerobically 5th Ed. (National Committee for Clinical Laboratory Standards, Wayne, Pa., 2000). The tested bacterial strains included Escherichia coli (American Type Collection ATCC25922), Staphylococcus aureus (ATCC25923), and Pseudomonas aeruginosa (ATCC27853). Two-fold serial dilutions of each compound ranging from 64 to 0.5 μg/ml were tested in duplicate. The MIC was determined as the lowest concentration of each compound that prevented bacterial growth after 18 hours of incubation at 35° C. […] The mass of each compound in the Table was confirmed by LC-MS.

[1] = MIC in E. coli or S. aureus, two-fold serial dilutions 64 to 0.5 μg/ml in duplicate, 18 hours of incubation at 35° C.

| MIC [1] | Compound | MIC | other results |
| --- | --- | --- | --- |
|  | N[C@@H]1C[C@H](N)CN(c2nc3nc(Nc4ccc(NC(=O)c5ccc6ccccc6c5O)cc4)nc(N4C[C@H](N)C[C@H](N)C4)c3[nH]2)C1 [1-Hydroxy-naphthalene-2-carboxylicacid {4-[6-((3R,5S)-3,5-diamino-piperidin-1-yl)-8-((3S,5R)-3,5-diamino-piperidin-1-yl)-7H-purin-2-ylamino]-phenyl}-amide] | < 16 µg/mL |  |
| < 16 µg/mL | Cl.O=C(Nc1ccc(Nc2cc(N3CCCCC3)cc(N3CCCCC3)c2)cc1)c1ccc2ccccc2c1O [1-Hydroxy-naphthalene-2-cxarboxylicacid {4-[3-((3R,5S)-3,5-diamino-piperidin-1-yl)-5-((3S,5R)-3,5-diamino-piperidin-1-yl)-phenylamino]-phenyl}-amide] |  |  |
|  | CC(=O)c1ccc(Nc2nc(N3C[C@H](N)C[C@H](N)C3)nc(N3CC[C@H](O)[C@@H]3CN)n2)cc1 [1-{4-[4-((2S,3S)-2-Aminomethyl-3-hydroxy-pyrrolidin-1-yl)-6-((3R,5S)-3,5-diamino-piperidin-1-yl)-[1,3,5]triazin-2-ylamino]-phenyl}-ethanone] | > 64 µg/mL |  |
|  | CC(=O)c1ccc(Nc2nc(N3C[C@H](N)C[C@H](N)C3)nc(N3C[C@H](O)C[C@H]3CN)n2)cc1 [1-{4-[4-((2S,4R)-2-Aminomethyl-4-hydroxy-pyrrolidin-1-yl)-6-((3R,5S)-3,5-diamino-piperidin-1-yl)-[1,3,5]triazin-2-ylamino]-phenyl}-ethanone] | > 64 µg/mL |  |
|  | CC(=O)c1ccc(Nc2nc(N3C[C@H](N)C[C@H](N)C3)nc(N3C[C@@H](N)C[C@H]3CN)n2)cc1 [1-{4-[4-((2S,4S)-4-Amino-2-aminomethyl-pyrrolidin-1-yl)-6-((3R,5S)-3,5-diamino-piperidin-1-yl)-[1,3,5]triazin-2-ylamino]-phenyl}-ethanone] | > 64 µg/mL |  |
|  | CC(=O)c1ccc(Nc2nc(N3C[C@H](N)C[C@H](N)C3)nc(N3C[C@@H](N)C[C@H]3CO)n2)cc1 [1-{4-[4-((2S,4S)-4-Amino-2-hydroxymethyl-pyrrolidin-1-yl)-6-((3R,5S)-3,5-diamino-piperidin-1-yl)-[1,3,5]triazin-2-ylamino]-phenyl}-ethanone] | > 64 µg/mL |  |
| > 64 µg/mL | CC(=O)c1ccc(Nc2nc(N3CCCCC3)nc(N3CCCCC3)n2)cc1.Cl [1-{4-[4-((3R,4S)-3-Aminomethyl-4-hydroxy-piperidin-1-yl)-6-((3R,5S)-3,5-diamino-piperidin-1-yl)-[1,3,5]triazin-2-ylammino]-phenyl}-ethanone] |  |  |
|  | CC(=O)c1ccc(Nc2nc(N3C[C@H](N)C[C@H](N)C3)nc(N3C[C@@H](N)[C@@H](N)C3)n2)cc1 [1-{4-[4-((3R,5S)-3,5-Diamino-piperidin-1-yl)-6-((3R,4S)-3,4-diamino-pyrrolidin-1-yl)-[1,3,5]triazin-2-ylamino]-phenyl}-ethanone] | > 64 µg/mL |  |
|  | CC(=O)c1ccc(Nc2nc(N3C[C@H](N)C[C@H](N)C3)nc(N3C[C@@H](O)[C@@H](O)C3)n2)cc1 [1-{4-[4-((3R,5S)-3,5-Diamino-piperidin-1-yl)-6-((3R,4S)-3,4-dihydroxy-pyrrolidin-1-yl)-[1,3,5]triazin-2-ylamino]-phenyl}-ethanone] | > 64 µg/mL |  |
| > 64 µg/mL | CC(=O)c1ccc(Nc2nc(N3C[C@H](N)C[C@H](N)C3)nc(N3C[C@H](O)C[C@@H](O)C3)n2)cc1 [1-{4-[4-((3R,5S)-3,5-Diamino-piperidin-1-yl)-6-((3R,5R)-3,5-dihydroxy-piperidin-1-yl)-[1,3,5]triazin-2-ylamino]-phenyl}-ethanone] |  |  |
|  | CC(=O)c1ccc(Nc2nc(N3C[C@H](N)C[C@H](N)C3)nc(N3CCC[C@@H](O)C3)n2)cc1 [1-{4-[4-((3R,5S)-3,5-Diamino-piperidin-1-yl)-6-((R)-3-hydroxy-piperidin-1-yl)-[1,3,5]triazin-2-ylamino]-phenyl}-ethanone] | > 64 µg/mL |  |
|  | COc1nc(Nc2ccc(C(C)=O)cc2)nc(N2C[C@H](N)C[C@H](N)C2)n1 [1-{4-[4-((3R,5S)-3,5-Diamino-piperidin-1-yl)-6-methoxy-[1,3,5]triazin-2-ylamino]-phenyl}-ethanone] | > 64 µg/mL |  |
|  | CC(=O)c1ccc(Nc2nc(N3C[C@H](N)C[C@H](N)C3)nc(N3C[C@H](CN)C[C@H](CN)C3)n2)cc1 [1-{4-[4-((3S,5R)-3,5-Bis-(aminomethyl)-piperidin-1-tl)-6-((3R,5S)-3,5-diamino-piperidin-1-l)-[1,3,5]triazin-2-ylamino]-phenyl}-ethanone] |  | Potency (MIC) [1]: − (− means MIC>64 μg/ml in E. coli or S. aureus) |
| > 64 µg/mL | CC(=O)c1ccc(Nc2nc(N3C[C@H](N)C[C@H](N)C3)nc(N3C[C@@H](N)C[C@@H](O)C3)n2)cc1 [1-{4-[4-((3S,5R)-3-Amino-5-hydroxy-piperidin-1-yl)-6-((3R,5S)-3,5-diamino-piperidin-1-yl)-[1,3,5]triazin-2-ylamino]-phenyl}-ethanone] |  |  |
|  | CC(=O)c1ccc(Nc2nc(N(CCN)CCN)nc(N3C[C@H](N)C[C@H](N)C3)n2)cc1 [1-{4-[4-[Bis-(2-amino-ethyl)-amino]-6-((3R,5S)-3,5-diamino-piperidin-1-yl)-[1,3,5]triazin-2-ylamino]-phenyl}-ethanone] | < 64 µg/mL |  |
| > 64 µg/mL | COC(=O)c1c(N2C[C@H](N)C[C@H](N)C2)nc2ccccc2c1N1C[C@H](N)C[C@H](N)C1.Cl [2,4-Bis-((3R,5S)-3,5-diamino-piperidin-1-yl)-quinoline-3-carboxylic acidmethylester] |  |  |
| > 64 µg/mL | Cl.N[C@@H]1C[C@@H](N)CN(c2nc(N3CCC4CCCCC4C3)nc(N3C[C@H](N)C[C@H](N)C3)n2)C1 (stereo partly drawn) [2,4-Biss-((3R,5S)-3,5-diamino-piperidin-1-yl)-6-(4-p-tolyl-piperazin-1-yl)-[1,3,5]triazine] |  |  |
|  | N[C@@H]1C[C@H](N)CN(c2nc(NNC(=O)c3ccccc3O)nc(N3C[C@H](N)C[C@H](N)C3)n2)C1 [2-Hydroxy-benzoicacid N′-[4-((3R,5S)-3,5-diamino-piperidin-1-yl)-6-((3S,5R)-3,5-diamino-piperidin-1-yl)-[1,3,5]triazin-2-yl]-hydrazide] | < 64 µg/mL |  |
| > 64 µg/mL | COC(=O)c1ccccc1Nc1nc(N2C[C@H](N)C[C@H](N)C2)nc(N2C[C@H](N)C[C@H](N)C2)n1 [2-[4,6-Bis-((3R,5S)-3,5-diamino-piperidin-1-yl)-[1,3,5]triazin-2-ylamino]-benzoic acid methyl ester] |  |  |
| > 64 µg/mL | Cl.c1ccc(N2CCN(c3nc(N4CCCCC4)nc(N4CCCCC4)n3)CC2)nc1 [2-[4-(4-Fluoro-phenyl)-piperiazin-1-yl]-4,6-Bis-((3R,5S)-3,5-diamino-piperidin-1-yl)-[1,3,5]triazine] |  |  |
|  | NC[C@@H]1C[C@@H](O)CN1c1nc(Nc2ccc3c(c2)C(=O)c2ccccc2-3)nc(N2C[C@H](N)C[C@H](N)C2)n1 [2-[4-((2S,4R)-2-Aminomethyl-4-hydroxy-pyrrolidin-1-yl)-6-((3R,5S)-3,5-diamino-piperidin-1-yl)-[1,3,5]triazin-2-ylamino]-fluoren-9-one] | > 64 µg/mL |  |
|  | NC[C@@H]1C[C@H](N)CN1c1nc(Nc2ccc3c(c2)C(=O)c2ccccc2-3)nc(N2C[C@H](N)C[C@H](N)C2)n1 [2-[4-((2S,4S)-4-Amino-2-aminomethyl-pyrrolidin-1-yl)-6-((3R,5S)-3,5-diamino-piperidin-1-yl)-[1,3,5]triazin-2-ylamino]-fluoren-9-one] | > 64 µg/mL |  |
|  | COc1nc(Nc2ccc3c(c2)C(=O)c2ccccc2-3)nc(N2C[C@H](N)C[C@H](N)C2)n1 [2-[4-((3R,5S)-3,5-Diamino-piperidin-1-yl)-6-methoxy-[1,3,5]triazin-2-ylamino]-fluoren-9-one] | > 64 µg/mL |  |
| > 64 µg/mL | Cl.Oc1cccc(C2CCN(c3nc(N4CCCCC4)nc(N4CCCCC4)n3)CC2)c1 [3-[1-(4,6-Bis-((3R,5S)-3,5-diamino-piperidin-1-yl)-[1,3,5]triazin-2-yl)-piperidin-4-yl]-phenyl] |  |  |
|  | NCCNc1nc(Nc2ccc3c(c2)-c2ccccc2C3=O)nc(N2C[C@H](N)C[C@H](N)C2)n1 [3-[4-(2-Amino-ethylamino)-6-((3R,5S)-3,5-diamino-piperidin-1-yl)-[1,3,5]triazin-2-ylamino]-fluoren-9-one] | > 64 µg/mL |  |
|  | NC[C@@H]1CN(c2nc(Nc3ccc4c(c3)-c3ccccc3C4=O)nc(N3C[C@H](N)C[C@H](N)C3)n2)CC[C@@H]1O [3-[4-((3R,4S)-3-Aminomethyl-4-hydroxy-piperidin-1-yl)-6-((3R,5S)-3,5-diamino-piperidin-1-yl)-[1,3,5]triazin-2-ylamino]-fluoren-9-one] | > 64 µg/mL |  |
|  | NC[C@@H]1C[C@H](CN)CN(c2nc(Nc3ccc4c(c3)-c3ccccc3C4=O)nc(N3C[C@H](N)C[C@H](N)C3)n2)C1 [3-[4-((3R,5S)-3,5-Bis-(aminomethyl)-piperidin-1-yl)-6-((3R,5S)-3,5-diamino-piperidin-1-yl)-[1,3,5]triazin-2-ylamino]-fluoren-9-one] | < 64 µg/mL |  |
|  | N[C@@H]1C[C@H](N)CN(c2nc(Nc3ccc4c(c3)-c3ccccc3C4=O)nc(N3C[C@@H](N)[C@@H](N)C3)n2)C1 [3-[4-((3R,5S)-3,5-Diamino-piperidin-1-yl)-6-((3R,4S)-3,4-diamino-pyrrolidin-1-yl)-[1,3,5]triazin-2-ylamino]-fluoren-9-one] | < 64 µg/mL |  |
|  | N[C@@H]1C[C@H](N)CN(c2nc(Nc3ccc4c(c3)-c3ccccc3C4=O)nc(N3C[C@@H](O)[C@@H](O)C3)n2)C1 [3-[4-((3S,5R)-3,5-Diamino-piperidin-1-yl)-6-((3R,4S)-3,4-dihydroxy-pyrrolidin-1-yl)-[1,3,5]triazin-2-ylamino}-fluoren-9-one] | > 64 µg/mL |  |
